For assay [1], the target named is T1, Adenosine receptor A1 (Cavia porcellus, UniProt P47745).
T1 sequence (P47745 whole entry): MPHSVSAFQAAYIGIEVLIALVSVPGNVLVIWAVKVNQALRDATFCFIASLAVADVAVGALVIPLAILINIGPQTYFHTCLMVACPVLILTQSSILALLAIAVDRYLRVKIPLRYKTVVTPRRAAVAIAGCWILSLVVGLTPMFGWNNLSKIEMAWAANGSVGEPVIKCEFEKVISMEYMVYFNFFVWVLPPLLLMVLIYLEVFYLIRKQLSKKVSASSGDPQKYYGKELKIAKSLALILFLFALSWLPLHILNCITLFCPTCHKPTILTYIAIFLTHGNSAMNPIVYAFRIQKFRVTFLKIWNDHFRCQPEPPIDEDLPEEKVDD
Put plainly: Tested for adenosine A1 receptor agonistic activity by determining concentration needed to prolong the stimulus-QRS interval by 50% of the maximum response. In kind it is functional.

Assay [2] has as its target Adenosine A2 receptor. The assay is described as follows: Tested for adenosine A2 receptor agonistic activity by determining coronary vasodilation. It counts as functional, Cavia porcellus.

From ChEMBL document CHEMBL1126102, “2-(N'-aralkylidenehydrazino)adenosines: potent and selective coronary vasodilators” (J Med Chem, 1992) come the findings set out here.

With `Nc1nc(N/N=C/c2cccc(F)c2)nc2c1ncn2C1O[C@H](CO)[C@@H](O)[C@H]1O` (stereo not given in full), the EC50 in assay [1] was 9.12 µM. Besides, the “-Log EC50” value in assay [2] turned out to be 8.47.
Taken in the same sequence, the figures for `Cc1cccc(/C=N/Nc2nc(N)c3ncn(C4O[C@H](CO)[C@@H](O)[C@H]4O)c3n2)c1` (stereo not given in full) were 17 µM and 8.36.
Taken in the same sequence, the figures for `C/C(=N\Nc1nc(N)c2ncn(C3O[C@H](CO)[C@@H](O)[C@H]3O)c2n1)c1cccs1` (stereo not given in full) were 8.91 µM and 7.55.
The molecule `Nc1nc(N/N=C/Cc2ccccc2)nc2c1ncn2C1O[C@H](CO)[C@@H](O)[C@H]1O` (stereo not given in full) had an EC50 in assay [1] of 83.2 µM. For the same molecule, the “-Log EC50” value in assay [2] is listed as 8.04.
For `Nc1nc(N/N=C/c2ccc(CCC(=O)O)cc2)nc2c1ncn2C1O[C@H](CO)[C@@H](O)[C@H]1O` (stereo not given in full) the same measures were 30.9 µM and 8.18.
For `Nc1nc(N/N=C/c2cccc(Cl)c2)nc2c1ncn2C1O[C@H](CO)[C@@H](O)[C@H]1O` (stereo not given in full) the same measures were 49 µM and 8.34.
Taken in the same sequence, the figures for `Nc1nc(N/N=C/c2cc(Br)cs2)nc2c1ncn2C1O[C@H](CO)[C@@H](O)[C@H]1O` (stereo not given in full) were 57.5 µM and 8.28.
On to `Nc1nc(N/N=C/c2ccncc2)nc2c1ncn2C1O[C@H](CO)[C@@H](O)[C@H]1O` (stereo not given in full), for which the midpoint of the response in assay [1], the EC50, lay at 26.3 µM. Besides, the “-Log EC50” value in assay [2] is 7.96.
Taken in the same sequence, the figures for `CC(C)(C)OC(=O)CCc1ccc(CCNc2nc(N)c3ncn(C4O[C@H](CO)[C@@H](O)[C@H]4O)c3n2)cc1` (stereo not given in full) were 19.1 µM and 8.28.
In the case of `Nc1nc(N/N=C/c2ccccc2)nc2c1ncn2C1O[C@H](CO)[C@@H](O)[C@H]1O` (stereo not given in full), in assay [1], a half-maximal response (EC50) required 83.2 µM. Besides, the “-Log EC50” value in assay [2] stood at 8.64.
For `CC(C)(C)OC(=O)CCc1ccc(/C=N/Nc2nc(N)c3ncn(C4O[C@H](CO)[C@@H](O)[C@H]4O)c3n2)cc1` (stereo not given in full) the same measures were 12 µM and 8.52.
Consider `Nc1nc(N/N=C/CCc2ccccc2)nc2c1ncn2C1O[C@H](CO)[C@@H](O)[C@H]1O` (stereo not given in full), for which the response in assay [1] was half-maximal at 66.1 µM (EC50). This counts as double-digit micromolar.
`COc1ccccc1/C=N/Nc1nc(N)c2ncn(C3O[C@H](CO)[C@@H](O)[C@H]3O)c2n1` (stereo not given in full) gave an EC50 in assay [1] of 12.3 µM. Moreover, the “-Log EC50” value in assay [2] was 6.86.
Turning to `C/C(=N\Nc1nc(N)c2ncn(C3O[C@H](CO)[C@@H](O)[C@H]3O)c2n1)c1ccc(F)cc1` (stereo not given in full), the EC50 in assay [1] is 4.17 µM. For the same molecule, in assay [2], the “-Log EC50” value was 8.49.
`Nc1nc(N/N=C/c2cccc3ccccc23)nc2c1ncn2C1O[C@H](CO)[C@@H](O)[C@H]1O` (stereo not given in full): in assay [1], a half-maximal effect (EC50) was put at 0.832 µM. For the same molecule, the “-Log EC50” value in assay [2] stood at 8.02.
For `Nc1nc(N/N=C/c2cccs2)nc2c1ncn2C1O[C@H](CO)[C@@H](O)[C@H]1O` (stereo not given in full) the same measures were 41.7 µM and 7.86.
For `Nc1nc(N/N=C/c2cccnc2)nc2c1ncn2C1O[C@H](CO)[C@@H](O)[C@H]1O` (stereo not given in full) the same measures were 32.4 µM and 7.83.
Taken in the same sequence, the figures for `Nc1nc(N/N=C/c2ccccc2F)nc2c1ncn2C1O[C@H](CO)[C@@H](O)[C@H]1O` (stereo not given in full) were 41.7 µM and 8.43.
`COc1cccc(/C=N/Nc2nc(N)c3ncn(C4O[C@H](CO)[C@@H](O)[C@H]4O)c3n2)c1` (stereo not given in full) gave a 50% effective concentration (EC50) in assay [1] of 19.5 µM. In addition, in assay [2], the “-Log EC50” value came to 7.91.
For `Cc1ccccc1/C=N/Nc1nc(N)c2ncn(C3O[C@H](CO)[C@@H](O)[C@H]3O)c2n1` (stereo not given in full) the same measures were 43.7 µM and 7.92.
With `Nc1nc(N/N=C/c2ccccc2Cl)nc2c1ncn2C1O[C@H](CO)[C@@H](O)[C@H]1O` (stereo not given in full), the concentration giving a half-maximal response (EC50) in assay [1] is 49 µM. Also, the “-Log EC50” value in assay [2] worked out at 8.12.
Turning to `NNc1nc(N)c2ncn(C3O[C@H](CO)[C@@H](O)[C@H]3O)c2n1` (stereo not given in full), the “-Log EC50” value in assay [2] is reported as 7.1.
With `Nc1nc(N/N=C/c2ccsc2)nc2c1ncn2C1O[C@H](CO)[C@@H](O)[C@H]1O` (stereo not given in full), in assay [1], the 50% effective concentration (EC50) was 60.3 µM. In assay [2], the “-Log EC50” value worked out at 7.81.
In turn, `Cc1ccc(/C=N/Nc2nc(N)c3ncn(C4O[C@H](CO)[C@@H](O)[C@H]4O)c3n2)cc1` (stereo not given in full) had a half-maximal effective concentration (EC50) in assay [1] of 39.8 µM.
The molecule `C/C(=N\Nc1nc(N)c2ncn(C3O[C@H](CO)[C@@H](O)[C@H]3O)c2n1)c1ccccc1` (stereo not given in full) had an EC50 in assay [1] of 3.02 µM. For the same molecule, in assay [2], the “-Log EC50” value is given as 7.9.
Taken in the same sequence, the figures for `Nc1nc(N/N=C/c2ccccn2)nc2c1ncn2C1O[C@H](CO)[C@@H](O)[C@H]1O` (stereo not given in full) were 41.7 µM and 8.24.
As to `Nc1nc(N/N=C/c2ccc3ccccc3c2)nc2c1ncn2C1O[C@H](CO)[C@@H](O)[C@H]1O` (stereo not given in full), in assay [1], a half-maximal effect (EC50) was put at 2.63 µM. Also, in assay [2], the “-Log EC50” value came out at 8.38.
For `Nc1nc(N/N=C/c2ccc(F)cc2)nc2c1ncn2C1O[C@H](CO)[C@@H](O)[C@H]1O` (stereo not given in full) the same measures were 12.6 µM and 8.61.
Taken in the same sequence, the figures for `Nc1nc(NCCc2ccc(CCC(=O)O)cc2)nc2c1ncn2C1O[C@H](CO)[C@@H](O)[C@H]1O` (stereo not given in full) were 112 µM and 7.95.

In general, EC50 refers to the midpoint of the concentration-response curve.
